Reference: ChEMBL document CHEMBL3880403, “Diaryl ethers as opioid receptor antagonist” (2006)

Key:
[1] = test system: Rattus norvegicus; experiment: Ex vivo inhibition of [3H]-Diprenophine binding to kappa opioid receptor in striatum/nucleus accumbens isolated from rat treated with compound at 7 mg/kg, po for 6 hrs measured after 30 mins post [3H]-Diprenophine addition to tissue relative to control; format: functional
[2] = test system: Rattus norvegicus; experiment: Ex vivo inhibition of [3H]-Diprenophine binding to delta opioid receptor in striatum/nucleus accumbens isolated from rat treated with compound at 7 mg/kg, po for 6 hrs measured after 30 mins post [3H]-Diprenophine addition to tissue relative to control; format: functional
[3] = test system: Rattus norvegicus; experiment: Ex vivo inhibition of [3H]-Diprenophine binding to mu opioid receptor in striatum/nucleus accumbens isolated from rat treated with compound at 7 mg/kg, po for 6 hrs measured after 30 mins post [3H]-Diprenophine addition to tissue relative to control; format: functional
[4] = test system: Rattus norvegicus; experiment: Antiobesity activity in po dosed diet-induced obese rat assessed as inhibition of food consumption measured up to 24 hrs by indirect calorimetry assay; format: functional; conditions: read-out: MED
[5] = test system: Rattus norvegicus; experiment: In vivo inhibition of opioid receptor in obese rat assessed as compound dose causing effective decrease in feeding behavior; format: functional
[6] = test system: Rattus norvegicus; experiment: Antiobesity activity in diet-induced obese rat assessed as energy balance at 3 mg/kg, po measured up to 24 hrs by indirect calorimetry assay; format: functional
[7] = molecular target: Delta-type opioid receptor (Homo sapiens) (UniProt P41143); experiment: Antagonist activity at delta opioid receptor (unknown origin) expressed in membranes assessed as inhibition of DPDPE-induced GTP-gamma-[35S] binding after 4 hrs by micro beta scintillation counting analysis
[8] = molecular target: Kappa-type opioid receptor (Homo sapiens) (UniProt P41145); experiment: Antagonist activity at kappa opioid receptor (unknown origin) expressed in membranes assessed as inhibition of U69593-induced GTP-gamma-[35S] binding after 4 hrs by micro beta scintillation counting analysis
[9] = molecular target: Mu-type opioid receptor (Homo sapiens) (UniProt P35372); experiment: Antagonist activity at mu opioid receptor (unknown origin) expressed in membranes assessed as inhibition of DAMGO1-induced GTP-gamma-[35S] binding after 4 hrs by micro beta scintillation counting analysis
Sequence of Mu-type opioid receptor (Homo sapiens) (P35372 whole entry): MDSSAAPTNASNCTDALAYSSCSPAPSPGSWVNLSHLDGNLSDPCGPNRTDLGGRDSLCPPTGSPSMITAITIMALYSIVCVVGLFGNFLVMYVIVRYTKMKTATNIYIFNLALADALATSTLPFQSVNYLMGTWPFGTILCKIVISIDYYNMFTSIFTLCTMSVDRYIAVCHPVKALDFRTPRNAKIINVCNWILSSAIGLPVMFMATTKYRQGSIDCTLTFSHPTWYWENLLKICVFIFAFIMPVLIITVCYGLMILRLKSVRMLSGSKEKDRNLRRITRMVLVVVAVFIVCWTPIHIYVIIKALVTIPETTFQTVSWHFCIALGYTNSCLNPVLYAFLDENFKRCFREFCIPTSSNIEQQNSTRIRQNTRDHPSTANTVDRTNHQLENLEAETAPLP

Sequence of Kappa-type opioid receptor (Homo sapiens) (P41145 whole entry): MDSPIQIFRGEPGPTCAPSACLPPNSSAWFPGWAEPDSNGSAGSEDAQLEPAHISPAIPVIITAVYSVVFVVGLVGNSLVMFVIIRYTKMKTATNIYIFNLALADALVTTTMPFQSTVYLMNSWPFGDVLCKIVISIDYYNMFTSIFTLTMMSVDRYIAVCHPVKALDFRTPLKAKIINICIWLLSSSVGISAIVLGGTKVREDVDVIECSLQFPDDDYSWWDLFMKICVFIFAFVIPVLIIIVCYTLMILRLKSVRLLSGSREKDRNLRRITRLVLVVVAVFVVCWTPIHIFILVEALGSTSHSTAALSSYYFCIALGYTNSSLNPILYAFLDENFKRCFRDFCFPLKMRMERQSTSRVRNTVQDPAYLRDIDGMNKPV
Sequence of Delta-type opioid receptor (Homo sapiens) (P41143 whole entry): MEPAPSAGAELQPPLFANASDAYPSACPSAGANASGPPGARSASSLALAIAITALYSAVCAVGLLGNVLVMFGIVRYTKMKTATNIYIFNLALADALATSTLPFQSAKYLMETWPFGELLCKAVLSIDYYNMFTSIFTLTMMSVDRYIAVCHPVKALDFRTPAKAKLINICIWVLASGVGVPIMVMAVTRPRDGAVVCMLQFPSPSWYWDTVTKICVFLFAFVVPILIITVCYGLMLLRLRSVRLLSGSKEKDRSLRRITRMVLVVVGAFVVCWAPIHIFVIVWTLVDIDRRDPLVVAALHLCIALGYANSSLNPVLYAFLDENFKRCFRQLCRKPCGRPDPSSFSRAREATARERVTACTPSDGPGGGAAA

Compound `CCCCCNCc1ccc(Oc2ccc(C(N)=O)nc2)c(F)c1` has an inhibition in vivo at 7 mg/kg [1] of 55%, an inhibition in vivo at 7 mg/kg [2] of 55% and an inhibition in vivo at 7 mg/kg [3] of 55%.
Compound `CC(C)(C)CCNCc1ccc(Oc2ccc(C(N)=O)cn2)c(Cl)c1` has an inhibition in vivo at 7 mg/kg [1] of 83%, an inhibition in vivo at 7 mg/kg [2] of 83% and an inhibition in vivo at 7 mg/kg [3] of 83%.
With `Cc1cc(CNCCC(C)(C)C)ccc1Oc1ccc(C(N)=O)cn1` the inhibition in vivo at 7 mg/kg [1] was 59%, the inhibition in vivo at 7 mg/kg [2] was 59% and the inhibition in vivo at 7 mg/kg [3] was 59%.
In the case of `CCCCCNCc1ccc(Oc2ccc(C(N)=O)cn2)c(OC)c1`, the inhibition in vivo at 7 mg/kg [1] is reported as 75%, the inhibition in vivo at 7 mg/kg [2] is reported as 75% and the inhibition in vivo at 7 mg/kg [3] is reported as 75%.
`CC(C)CCNCc1ccc(Oc2ccc(C(N)=O)cn2)c(Cl)c1` showed an inhibition in vivo at 7 mg/kg [1] of 77%, an inhibition in vivo at 7 mg/kg [2] of 77% and an inhibition in vivo at 7 mg/kg [3] of 77%.
`Cc1cc(CNCCC(C)C)ccc1Oc1ccc(C(N)=O)cn1` showed a minimal effective dose [4] of 0.3 mg/kg, an inhibition in vivo at 7 mg/kg [1] of 55% and an inhibition in vivo at 7 mg/kg [2] of 55%. It also gave an inhibition in vivo at 7 mg/kg [3] of 55%, an ED [5] of 0.3 mg/kg and an Activity [6] of -68 kcal/kg/day.
For `CC(C)(C)CCNCc1ccc(Oc2ccc(C(N)=O)cn2)cc1`, the minimal effective dose [4] was ≤ 3 mg/kg, the inhibition in vivo at 7 mg/kg [1] was 62% and the inhibition in vivo at 7 mg/kg [2] was 62%. The inhibition in vivo at 7 mg/kg [3] was 62%, the ED [5] was “<=3 ug/kg” and the Activity [6] was -56 kcal/kg/day.
Compound `COc1cc(CNCCC(C)(C)C)ccc1Oc1ccc(C(N)=O)cn1` has an inhibition in vivo at 7 mg/kg [1] of 55%, an inhibition in vivo at 7 mg/kg [2] of 55% and an inhibition in vivo at 7 mg/kg [3] of 55%.
With `CC(C)CCNCc1ccc(Oc2ccc(C(N)=O)cn2)cc1` the minimal effective dose [4] was 0.3 mg/kg, the inhibition in vivo at 7 mg/kg [1] was > 40% and the inhibition in vivo at 7 mg/kg [2] was > 40%. The inhibition in vivo at 7 mg/kg [3] was > 40%, the Kb [7] was 4.4 nM and the ED [5] was 0.3 mg/kg. For the same compound, the Kb [8] was 0.4 nM, the Activity [6] was -35 kcal/kg/day and the Kb [9] was 0.2 nM.
`Cc1cc(CNCCC(C)C)ccc1Oc1ccc(C(N)=O)cc1F` showed an inhibition in vivo at 7 mg/kg [1] of 58%, an inhibition in vivo at 7 mg/kg [2] of 58% and an inhibition in vivo at 7 mg/kg [3] of 58%.
Compound `NC(=O)c1ccc(Oc2ccc(CCNCc3cccc(F)c3)cc2Cl)nc1` has a Kb [7] of 5.78 nM, a Kb [8] of 4.5 nM and a Kb [9] of 0.41 nM.
For `O=C1CC[C@@]2(O)[C@H]3Cc4ccc(O)c5c4[C@@]2(CCN3CC2CC2)[C@H]1O5` [NALTREXONE], the minimal effective dose [4] was > 10 mg/kg, the inhibition in vivo at 7 mg/kg [1] was < 40% and the inhibition in vivo at 7 mg/kg [2] was < 40%. For the same compound, the inhibition in vivo at 7 mg/kg [3] was < 40%.
`CCCCCNCc1ccc(Oc2ccc(C(N)=O)cc2)cc1` was tested, and the minimal effective dose [4] was 3 mg/kg, the ED [5] was 3 mg/kg and the Activity [6] was -65 kcal/kg/day.
For `C[C@H]1CN(CC[C@H](O)C2CCCCC2)CC[C@@]1(C)c1cccc(O)c1`, the minimal effective dose [4] was 1 mg/kg, the inhibition in vivo at 7 mg/kg [1] was > 40% and the inhibition in vivo at 7 mg/kg [2] was > 40%. The inhibition in vivo at 7 mg/kg [3] was > 40% and the Activity [6] was -36 kcal/kg/day.
In the case of `COc1cc(CNCCc2ccccc2F)ccc1Oc1ccc(C(N)=O)cn1`, the inhibition in vivo at 7 mg/kg [1] is reported as 54%, the inhibition in vivo at 7 mg/kg [2] is reported as 54% and the inhibition in vivo at 7 mg/kg [3] is reported as 54%.
In the case of `NC(=O)c1ccc(Oc2ccc(CNCCc3cccc(F)c3)cc2)nc1`, the inhibition in vivo at 7 mg/kg [1] is reported as 40%, the inhibition in vivo at 7 mg/kg [2] is reported as 40% and the inhibition in vivo at 7 mg/kg [3] is reported as 40%. For the same compound, the Kb [7] was 0.677 nM, the Kb [8] was 0.894 nM and the Kb [9] was 0.072 nM.
Compound `NC(=O)c1ccc(Oc2ccc(CNCCC3CCCCC3)cc2)nc1` has an inhibition in vivo at 7 mg/kg [1] of 79%, an inhibition in vivo at 7 mg/kg [2] of 79% and an inhibition in vivo at 7 mg/kg [3] of 79%.
With `NC(=O)c1ccc(Oc2ccc3c(c2)CCCN(CCc2ccccc2)C3)nc1` the inhibition in vivo at 7 mg/kg [1] was 62%, the inhibition in vivo at 7 mg/kg [2] was 62% and the inhibition in vivo at 7 mg/kg [3] was 62%.
`NC(=O)c1ccc(Oc2ccc(CNCCc3ccc(F)cc3)cc2)cc1` gave an inhibition in vivo at 7 mg/kg [1] of 50%, an inhibition in vivo at 7 mg/kg [2] of 50% and an inhibition in vivo at 7 mg/kg [3] of 50%.
In the case of `NC(=O)c1ccc(Oc2ccc(CNCCC3CCCC3)cc2)nc1`, the minimal effective dose [4] is reported as ≤ 3 mg/kg, the inhibition in vivo at 7 mg/kg [1] is reported as > 60% and the inhibition in vivo at 7 mg/kg [2] is reported as > 60%. The inhibition in vivo at 7 mg/kg [3] was > 60%, the ED [5] was “<=3 ug/kg” and the Activity [6] was -39 kcal/kg/day.
In the case of `Cc1ccccc1CNCCc1ccc(Oc2ccc(C(N)=O)cn2)c(Cl)c1`, the Kb [7] is reported as 8.9 nM, the Kb [8] is reported as 3.38 nM and the Kb [9] is reported as 0.281 nM.
In the case of `NC(=O)c1ccc(Oc2ccc(CNCCc3cccs3)cc2)nc1`, the minimal effective dose [4] is reported as ≤ 3 mg/kg, the inhibition in vivo at 7 mg/kg [1] is reported as > 40% and the inhibition in vivo at 7 mg/kg [2] is reported as > 40%. For the same compound, the inhibition in vivo at 7 mg/kg [3] was > 40%, the Kb [7] was 0.708 nM and the ED [5] was “<=3 ug/kg”. The Kb [8] was 0.355 nM, the Activity [6] was -19 kcal/kg/day and the Kb [9] was 0.068 nM.
For `CCCCNCc1ccc(Oc2ccc(C(N)=O)cn2)c(C)c1`, the inhibition in vivo at 7 mg/kg [1] was 38%, the inhibition in vivo at 7 mg/kg [2] was 38% and the inhibition in vivo at 7 mg/kg [3] was 38%.
`NC(=O)c1ccc(Oc2ccc(CCNCc3cccc(Cl)c3)cc2Cl)nc1` showed a Kb [7] of 30.1 nM, a Kb [8] of 6.86 nM and a Kb [9] of 0.503 nM.
For `CC(C)CCNCc1ccc(Oc2ccc(C(N)=O)cn2)c(F)c1`, the minimal effective dose [4] was 0.3 mg/kg, the inhibition in vivo at 7 mg/kg [1] was > 65% and the inhibition in vivo at 7 mg/kg [2] was > 65%. The inhibition in vivo at 7 mg/kg [3] was > 65%, the ED [5] was 0.3 mg/kg and the Activity [6] was -81 kcal/kg/day.
Compound `NC(=O)c1ccc(Oc2ccc(CCNCc3ccccc3)cc2Cl)nc1` has a Kb [7] of 17.5 nM, a Kb [8] of 7.86 nM and a Kb [9] of 0.843 nM.
